Bridge positions count the residues as written; N and C are the ends. Square brackets hold non-standard residues; d marks the D form. Peptide text beside a SMILES is read from it. * marks the point of attachment. Ileψ(thiazoline)Cys = CC[C@H](C)[C@H](N)C1=N[C@H](C(=O)*)CS1; dOrn = NCCC[C@@H](N)C(=O)O
System: Eimeria maxima and Clostridium perfringens
Type: in vivo, Cobb 500 Chicks (Gallus gallus domesticus)
Details: in words

`CC[C@H](C)[C@H](N)C1=N[C@H](C(=O)N[C@@H](CC(C)C)C(=O)N[C@H](CCC(=O)O)C(=O)N[C@H](C(=O)N[C@H]2CCCCNC(=O)[C@H](CC(N)=O)NC(=O)[C@@H](CC(=O)O)NC(=O)[C@H](Cc3cnc[nH]3)NC(=O)[C@@H](Cc3ccccc3)NC(=O)[C@H]([C@@H](C)CC)NC(=O)[C@@H](CCCN)NC2=O)[C@@H](C)CC)CS1` [Treatment Group 5, Bacitracin] ({Ileψ(thiazoline)Cys}-L[dE]IK[dOrn]I[dF]H[dD]N; lactam 4-C) was tested, and the “weight gain over the infected negative control” value was “significant increase in weight gain”.

From patent US20190300824A1, “BACTERIAL SPORE COMPOSITIONS FOR […]” (priority 2014, published 2019)
